Laboratory results from patent publication US20250340537A1, “PHARMACEUTICALLY ACTIVE COMPOUNDS, COMPOSITIONS, AND METHODS FOR MODULATING PENDRIN” (ARBORMED Co., Ltd., priority 2022, published 2025).

Tests used:
H723R-hPDS = target: T1, H723R-hPDS (Homo sapiens, UniProt O43511, H723R); experiment: Surface biotinylation assay; format: cell-based; details: Panc1 hPDS-H723R cells, 24 h treatment
T1 construct: expressed in transfected cells; host or cells: Panc1 (Panc1^hPDS-H723R)
T1 sequence (O43511 1-780 H723R): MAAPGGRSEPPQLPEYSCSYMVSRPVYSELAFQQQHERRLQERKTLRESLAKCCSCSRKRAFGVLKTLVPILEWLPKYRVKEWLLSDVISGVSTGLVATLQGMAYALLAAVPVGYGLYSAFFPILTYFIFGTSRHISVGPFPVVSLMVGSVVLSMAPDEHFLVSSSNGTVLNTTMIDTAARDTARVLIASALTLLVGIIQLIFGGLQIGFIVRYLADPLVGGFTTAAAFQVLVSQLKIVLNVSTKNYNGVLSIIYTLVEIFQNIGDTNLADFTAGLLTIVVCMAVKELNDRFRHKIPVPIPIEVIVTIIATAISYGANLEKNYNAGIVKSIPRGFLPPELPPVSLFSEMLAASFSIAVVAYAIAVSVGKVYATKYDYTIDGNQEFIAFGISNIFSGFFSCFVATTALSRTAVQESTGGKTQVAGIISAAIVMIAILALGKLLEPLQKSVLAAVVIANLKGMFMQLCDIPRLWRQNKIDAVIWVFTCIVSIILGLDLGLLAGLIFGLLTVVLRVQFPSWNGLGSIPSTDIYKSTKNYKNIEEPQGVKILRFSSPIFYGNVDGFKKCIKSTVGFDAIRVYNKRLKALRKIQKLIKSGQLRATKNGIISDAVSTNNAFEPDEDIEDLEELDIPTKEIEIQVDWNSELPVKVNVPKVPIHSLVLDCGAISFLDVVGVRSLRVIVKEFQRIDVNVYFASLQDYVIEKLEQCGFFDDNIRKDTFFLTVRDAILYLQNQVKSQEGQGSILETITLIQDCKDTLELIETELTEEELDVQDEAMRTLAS
Text: Surface biotinylation is a commonly used technique to specifically isolate plasma membrane proteins using a modified biotin in a form that is easy to bind with proteins. Sulfo-NHS-SS-biotin is a generally used reagent in surface biotinylation due to its impermeability and water solubility. In cool conditions, the extracellular domain of membrane proteins is covalently binding with the reactive biotin ester. These proteins are separated from the whole lysate via a biotin-streptavidin response. In this process, we can validate the increasing rate of the expression level of mutant pendrin in the plasma membrane.
Panc1^parental, Panc1^hPDS-WT and Panc1^hPDS-H723R cells were cultured in high glucose DMEM medium supplemented with 10% fetal bovine serum and 1% antibiotics. 24 hours after seeding in 6-well plates, cells were treated as indicated for 24 h. Cells were washed in PBS and incubated on ice with 0.3 mg/ml biotin in PBS. After 35 min, 1% BSA in PBS, D.W mixture (1:1) was added to cells, and cells were incubated for 10 min. Cells were washed and lysed in lysis buffer. The lysates were sonicated for 20 seconds, and not boiled. After centrifugated, the supernatants were collected and quantified via BCA analysis. The quantified supernatants were added to 10% avidin beads in PBS and incubated overnight at 4° C. After incubation, the below steps were repeated 4 times: i) centrifugation, ii) removing the supernatant, iii) washing with lysis buffer. After the last centrifugation and removing the supernatant, the sample buffer mixed with reducing buffer was added to biotin-avidin mixtures. The elution was accomplished in the 38° C. bioshaker for 40 min and the supernatant was collected. The supernatant was separated by SDS-PAGE and transferred to an Immobilon membrane. After incubation in 5% BSA solution to prevent nonspecific binding, the membrane was incubated with specific antibodies overnight. Then, the membrane was washed with TBST buffer and incubated with HRP-conjugated anti-rabbit or -mouse antibody for 1 hour. The ECL buffer and iBright were used for the visualization of protein bands. The respective protein band intensity was quantified by densitometric analysis using the NIH ImageJ program.
It is indicated as expression % with the following key: A=Expression % greater than 100%; B=Expression % greater than 50%, but less than 100%; C=Expression % less than 50%.

H723R-pendrin = target: T2, H723R-pendrin (Homo sapiens, UniProt O43511, H723R); experiment: PTI assay (Cl−/HCO3− exchange activity); format: cell-based; details: PANC-1 cells, BCECF pHi
T2 construct: expressed in transfected cells; host or cells: PANC-1
T2 sequence (O43511 1-780 H723R): T1 sequence (O43511 1-780 H723R)
Method: Measurements of intracellular pH (pHi) in PANC-1 cells were performed with the pH-sensitive fluorescent probe 2′,7′-bis-(2-carboxyethyl)-5-(and-6)-carboxyfluorescein (BCECF) according to previously reported protocols. Briefly, cells were incubated with 2 μM BCECF acetoxy-methylester for 5 min and then perfused with a HCO3^−-buffered solution [containing 120 mM NaCl, 5 mM KCl, 1 mM MgCl2, 1 mM CaCl2, 10 mM d-glucose, 5 mM Hepes, and 25 mM NaHCO3 (pH 7.4)].
BCECF fluorescence was recorded at excitation wavelengths of 490 and 440 nm at a resolution of 2/s on a recording setup. The Cl^−/HCO3^− exchange activities were estimated from the initial rate of pHi increase as a result of Cl^− removal from the HCO3^−-containing buffer (25 mM HCO3^− with 5% CO2).
The pHi calibration was performed with standard pH solutions containing 150 mM KCl and 5 μM nigericin. The intrinsic buffer capacity (βi) was calculated by measuring ΔpHi in response to 5 to 40 mM NH4Cl pulses in Na^+-free solutions. Because the βi values were not substantially affected by transfection with the plasmids encoding for WT-pendrin or H723R-pendrin, the Cl^−/HCO3^− exchange activities were expressed as ΔpH unit/min without compensating for the buffer capacity.
It is indicated as exchange % with the following key: A=Exchange % greater than 50%; B=Exchange % less than 50%.

| Surface expression % of H723R-hPDS relative to WT-hPDS (Glycosylated form pendrin) (H723R-hPDS; 3 uM) | Surface expression % of H723R-hPDS relative to WT-hPDS (Glycosylated form pendrin) (H723R-hPDS; 10 uM) | Cl−/HCO3− exchange, % of WT-hPDS (H723R-pendrin; 3 uM) | Cl−/HCO3− exchange, % of WT-hPDS (H723R-pendrin; 10 uM) | Structure (SMILES) |
| --- | --- | --- | --- | --- |
| A (A=Expression % greater than 100%) | A (A=Expression % greater than 100%) | A (A=Exchange % greater than 50%) | A (A=Exchange % greater than 50%) | NC1=C(c2cncc(-c3ccc(O)c(O)c3)n2)C(=O)CN1c1ccccc1Cl [Compound 9] |
| A (A=Expression % greater than 100%) | A (A=Expression % greater than 100%) | A (A=Exchange % greater than 50%) | A (A=Exchange % greater than 50%) | NC1=C(c2cncc(-c3ccc(O)c(O)c3)n2)C(=O)CN1CC1CCCC1 [Compound 18] |
| A (A=Expression % greater than 100%) | A (A=Expression % greater than 100%) | A (A=Exchange % greater than 50%) | A (A=Exchange % greater than 50%) | COc1cc(-c2nccc(C3=C(N)N(CC4CCCC4)CC3=O)n2)ccc1O [Compound 105] |
